From patent publication US11072587B2, “Administration of aurora kinase inhibitors for anti-malarial therapy” (University of Central Florida Research Foundation, Inc., priority 2017, dated 2021)

Legend:
[1] = tested on: chloroquine-resistant P. falciparum Dd2; assay: SYBR Green I-based fluorescence assay, intraerythrocytic growth inhibition; assay type: cell-based, Plasmodium falciparum; conditions: for IC50 / IC90: P. falciparum Dd2, 72 h
Protocol: Ten millimolar compound stocks in DMSO were diluted by ½, ⅕, and/or 1/10 fold dilutions in ultrapure water or RPMI 1640. Varying concentrations of compound were added to culture at a 1% parasitemia and 2% hematocrit in 96-well black plates. Assay conditions maintained maximum DMSO concentrations less than 0.125% per dilution. Positive (baseline 0% growth) controls consisted of Chloroquine at 1 μM final concentration. Following 72 h incubation at 37° C. in 5% CO2, dilution plates were frozen at −80° C. for a minimum of 30 minutes. Dilution plates were allowed to thaw followed by lysis treatment and SYBR Green I incorporation. DNA quantification was determined using a fluorescence reading on a Synergy H4 multimode plate reader set at 485 nm excitation and 530 nm emission as previously reported (Roberts, Iyamu et al. 2016). EC50 was calculated from a dose response curve that was generated from a concentration range of 0-10 μM using GraphPad Prism v5.0.
Different dilutions of the compound/fraction in 1 μl of the culture medium were added to 99 μl of P. falciparum culture at a 1% parasitemia and 2% hematocrit in 96-well plates. Maximum DMSO concentration in the culture never exceeded 0.125%. Chloroquine at 1 μM was used as a positive control to determine the baseline value. Following 72 hours incubation at 37° C., the plates were frozen at −80° C. After thawing, 100 μL of lysis buffer (with SYBR Green I dye 1:10,000) was added to each well and plates were incubated at room temperature for 30 minutes prior to reading.
80 compounds were screened for their ability to inhibit the intraerythrocytic growth of chloroquine-resistant P. falciparum Dd2 using a SYBR Green I-based fluorescence assay at 1 μM.
(§1) 7 hit compounds and 17 mammalian Aurora A and B inhibitors in clinical trial were screened by SYBR Green I-based fluorescence assay to determine IC50 values in chloroquine-resistant P. falciparum Dd2 and the cytotoxicity was evaluated in 3T3 Mouse fibroblast cells using MTS cytotoxicity assay. The results of the top 2 ASINEX library compounds and 3 commercially available mammalian Aurora A and B inhibitors are shown in Table 1 below with noted structures provided in FIG. 16.

[2] = tested on: 3T3 Mouse fibroblast cells; assay: MTS cytotoxicity assay; assay type: cell-based; conditions: for Selectivity Index: 3T3 EC50 versus Dd2 IC50; for EC50 / EC90: cytotoxicity, 3T3 mouse fibroblast cells
Protocol: The intraerythrocytic development of the malaria parasite diverges from the paradigm of eukaryotic cell cycle. Novelty of the Plasmodium cell cycle offers opportunities for development of therapeutics directed against essential components. […] Essential Plasmodium Aurora-related kinases (Arks) 1, 2, and 3 are homologous to Aurora A and B, Ser/Thr kinases involved in cell division. […] To discover potent and selective small molecule inhibitors of PfArks, screening was conducted of a library of optimized mammalian Aurora kinase inhibitors that have evolved from a general pharmacophore models for Ser/Thr kinases. In addition, we are also repurposing human Aurora kinase inhibitors to discover antimalarial lead compounds. Novel potent inhibitors (EC50<1 μM) were identified in cell-based screening using SYBR Green I fluorescence based assay. Selectivity of the hits against mammalian cells were determined using the MTS ((3-(4,5 dimethylthiazol-2-yl)-5-(3-carboxymethoxyphenyl)-2-(4-sulfophenyl)-2H-tetrazolium, inner salt) cell proliferation assay. Results from our studies to assess structure-activity-relationship, specificity of inhibition, and cellular effects of the compounds will be presented.
as §1

PfArk2 = assay: γ-P32 ATP utilization kinase assay with MBP as substrate; assay type: biochemical, Plasmodium falciparum; conditions: GST-tagged PfArk2 2.5 μg, MBP 2.5 μg, autoradiogram (FIG. 17B)
Protocol: GST-tagged PfArk2 was purified using affinity chromatography (FIG. 17A). Compounds were added to a standard kinase assay at indicated concentrations against PfArk-2 (2.5 μg) in a γ-P^32 ATP utilization assay with MBP (2.5 μg) as substrate (FIG. 17B). Upper panels show Coomassie Blue-stained gel and the lower panel is the corresponding autoradiogram.

[3] = P. falciparum Dd2, compound at 1 μM, 72 h

Molecule | IC50 [1] | IC90 [1] | % inhibition (1 μM) [1, 3] | Selectivity Index [2] | EC50 [2] | EC90 [2] | IC50 ([1]; Plasmodium falciparum) | IC90 ([1]; Plasmodium falciparum) | inhibition at 1 µM ([1]; Plasmodium falciparum, P. falciparum Dd2, compound at 1 μM, 72 h) | Inhibition of PfArk2 activity (PfArk2)
BI-847325 [DC-0005156] | 530 nM | 2000 nM | 93% | 2.5 | 1310 nM | > 26700 nM |  |  |  | 
CCn1cc(-c2ccnc3[nH]c(-c4cccc(CN(C)C)c4)cc23)c(-c2ccc(NC(=O)N(C)C)cc2)n1 [DC-0005154, GSK-1070916] |  |  |  | 13.5 | 5970 nM | 15900 nM | 441 nM | 1720 nM | 87% | not particularly effective in inhibiting PfArk2 activity
COc1cc2c(Nc3ccc(NC(=O)c4ccccc4)cc3)ncnc2cc1OCCCN1CCOCC1 [DC-0005146, ZM-447439] | 1020 nM | 4320 nM | 75% | 3.7 | 3780 nM | 11700 nM |  |  |  | not particularly effective in inhibiting PfArk2 activity
